Each structure is given as a SMILES string.

One assay concerns the target T1, histamine H2-receptor (Cavia porcellus, UniProt P47747).
T1 construct: The atria were dissected free and mounted in a jacketed 5 ml capacity tissue bath; from tissue; host or cells: guinea-pig isolated atria
As to the kind of experiment: Guinea-pig isolated atria (antagonism of histamine positive chronotropic response). The assay is classed as cell-based. The procedure:
This test is designed to specifically detect histamine H2-receptor antagonists. Guinea-pigs of either sex, weighing between 250 and 500 g, were killed by cervical dislocation and exsanguination. The heart was removed and placed in cold McEwens solution. The atria were dissected free and mounted in a jacketed 5 ml capacity tissue bath containing McEwens solution maintained at 32 °C and gassed with a 95% oxygen, 5% carbon dioxide gas mixture. Atrial beating was detected by an auxotonic lever and from thence recorded on a Devices MX2 hot wire pen recorder. Atrial rate was derived from the amplified force signal using a Devices Instantaneous Ratemeter and recorded on the MX2 pen recorder. […] To avoid disruption of the tissue by repeated washing, responses to cumulative concentrations of histamine were obtained in the absence (control) and then presence of various concentrations of test compounds. The ability to antagonise histamine mediated positive chronotropic responses of this tissue is believed to be specific for H2-receptor antagonists. Such activity was assessed by examining the ability of test compounds to shift to the right the plotted concentration/response curves to histamine.

Another assay concerns gastric acid secretion. As to the kind of experiment: perfused rat stomach preparation (histamine-stimulated acid secretion, anaesthetised rat). It is filed as in vivo. The conditions noted are these: bolus intravenous, maximal reduction in hydrogen-ion concentration as percentage of control, histamine infusion; for inhibition in vivo at 0.2 µmol/kg: dose 0.2 µmole/kg; for inhibition in vivo at 0.5 µmol/kg: dose 0.5 µmole/kg; for inhibition in vivo at 1 µmol/kg: dose 1 µmole/kg; for inhibition in vivo at 0.1 µmol/kg: dose 0.1 µmole/kg. The procedure: The ability of the compounds of the invention to modify the pH of gastric acid secretion was investigated as follows:
The modified (1) perfused stomach preparation (2) of the urethane (25% solution) anaesthetised rat, maintained at 37°C, allows the continuous measurement of pH during basal and stimulated acid secretion.
The lumen of the stomach of male Wistar rats (approximately 200 g bodyweight) was perfused, via a cannula designed to reduce the dead space of the stomach, with 5% glucose solution (37°C) at the rate of 3 ml/min. The perfusate was forced over the surface of the secretory mucosa only, the antrum being excluded. The effluent then passed over a microflow-type glass pH eletrode via a collecting funnel situated in the non- glandular forestomach.
The secretagogue histamine was administered as a constant intravenous infusion to produce a steady rate of acid secretion. Test compounds were administered in solution as bolus intravenous injections and any effect on the pH of the perfusate noted. The perfusate pH was recorded on a potentiometric recorder and anti-secretory responses were measured in terms of the maximal reduction in hydrogen-ion concentration expressed as a percentage of the control concentration.

[1] abbreviates: Concentration 2.5 x 10^-7 Molar, 0.25 µM.
Setting [2] is: Concentration 5 x 10^-7 Molar, 0.5 µM.
Where [3] appears, read: Concentration 7.5 x 10^-8 Molar, 0.075 µM.

T1 sequence (P47747 whole entry): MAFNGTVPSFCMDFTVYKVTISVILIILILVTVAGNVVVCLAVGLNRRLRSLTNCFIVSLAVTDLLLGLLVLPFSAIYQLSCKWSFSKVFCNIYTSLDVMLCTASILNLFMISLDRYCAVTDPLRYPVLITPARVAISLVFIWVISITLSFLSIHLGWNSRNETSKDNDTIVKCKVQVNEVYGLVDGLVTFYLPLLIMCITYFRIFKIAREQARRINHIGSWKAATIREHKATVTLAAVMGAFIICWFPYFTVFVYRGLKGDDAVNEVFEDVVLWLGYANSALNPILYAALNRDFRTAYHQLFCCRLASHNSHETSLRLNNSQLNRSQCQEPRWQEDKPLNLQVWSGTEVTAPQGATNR

In the case of `NC(N)=Nc1nc(CSCCNC2=NS(=O)(=O)c3cccc(N)c32)cs1` [Example 20, N^3-[2-('2-guanidinothiazole-4-ylmethylthio)ethyl]-1,2-benzoisothiazole-3,4-diamine-1,1-dixide], the “Activity (Decrease in Histamine Potency)” value at histamine H2-receptor (setting [1]) is recorded as “Active”. Besides, the inhibition in vivo (in general, the relative decrease from the control value, in per cent) at 0.2 µmol/kg in the assay on gastric acid secretion amounted to 100%. `CN(C)Cc1cccc(OCCCNC2=NS(=O)(=O)c3ccccc32)c1` [Example 12, N-[3-(3-dimethylaminomethylphenoxy)propyl]-1,2-benzoiso-thiazole-3-amine-1,1-dioxide]: the “Activity (Decrease in Histamine Potency)” value on histamine H2-receptor (Concentration 1 x 10^-6 Molar) was “Active”. The same molecule had an inhibition in vivo at 0.5 µmol/kg in the assay with gastric acid secretion of 94%. For the molecule `CN(C)Cc1ccc(CSCCNC2=NS(=O)(=O)c3cccc([N+](=O)[O-])c32)o1` [Example 1, N-[2-(5-dimethylaminomethylfuran-2-ylmethylthio)ethyl]4-nitro-1,2-benzoisothiazole-3-amine-1,1-dioxide], at histamine H2-receptor (Concentration 7.5 x 10^-7 Molar, 0.75 µM), the “Activity (Decrease in Histamine Potency)” value is given as “Active”. Also, the inhibition in vivo at 0.2 µmol/kg with gastric acid secretion stood at 87%. Regarding `O=[N+]([O-])c1cccc2c1C(NCCCOc1cccc(CN3CCCCC3)c1)=NS2(=O)=O` [Example 11, N-[3-(3-piperid-1-ylmethylphenoxy)propyl]-4-nitro-1,2-benzoisothiazole-3-amine-1,1-dioxide], the “Activity (Decrease in Histamine Potency)” value on histamine H2-receptor (Concentration 1 x 10^-7 Molar, 0.1 µM) is listed as “Active”. The inhibition in vivo at 0.5 µmol/kg in the assay with gastric acid secretion was found to be 100%. For the molecule `CN(C)Cc1ccc(CSCCNC2=NS(=O)(=O)c3cc([N+](=O)[O-])ccc32)o1` [Example 6], the “Activity (Decrease in Histamine Potency)” value on histamine H2-receptor (setting [2]) was “Active”. The molecule further yielded an inhibition in vivo at 1 µmol/kg in the assay with gastric acid secretion of 75%. In the case of `CN(C)Cc1ccc(CSCCNC2=NS(=O)(=O)c3cc(Cl)ccc32)o1` [Example 8, N-[2-(5-dimethylaminomethylfuran-2-ylmethylthio)ethyl]-6-chloro-1,2benzoisothiazole-3-amine-1,1-dioxide], on histamine H2-receptor (Concentration 1 x 10^-5 Molar, 10 µM), the “Activity (Decrease in Histamine Potency)” value is recorded as “Active”. For the same molecule, in the assay on gastric acid secretion (dose 5 µmole/kg), the inhibition in vivo at 5 µmol/kg is 75%.

For `O=S1(=O)NC(NCCCOc2cccc(CN3CCCCC3)c2)=Nc2ccccc21` [Example 40, N-[3-(3-{1-piperidylmethyl}phenoxy)propyl]-1,2,4-benzothia-diazine-3-amine-1,1-dioxide], the inhibition in vivo at 0.5 µmol/kg with gastric acid secretion stood at 94%. With `CN(C)Cc1ccc(CSCCNC2=NS(=O)(=O)c3ccc([N+](=O)[O-])cc32)o1` [Example 5, N-[2-(5-dimethylaminomethylfuran-2-ylmethylthio)ethyl] 5-nitro-1,2-benzoisothizaole-3-amine-1,1-dioxide], the inhibition in vivo at 2 µmol/kg in the assay on gastric acid secretion (dose 2 µmole/kg) was 80%. `CN(C)Cc1ccc(CSCCNC2=NS(=O)(=O)c3c2cccc3[N+](=O)[O-])o1` [Example 7, N-2-(5-dimethylamihomethylfuran-2-ylmethylthioethyl] -7-nitro-1,2-benzoisothizaole-3-amine-1,1-dioxide] had an inhibition in vivo at 0.5 µmol/kg with gastric acid secretion of 68%. Regarding `Nc1cccc2c1C(NCCCOc1cccc(CN3CCCCC3)c1)=NS2(=O)=O` [Example 16, N^3-[3-(3-piperid-1-ylmethylphenoxy)propyl]-1,2-benzoiso-thiazole-3,4-diamine-1,1-dioxide], at histamine H2-receptor (setting [3]), the “Activity (Decrease in Histamine Potency)” value was “Active”. In the assay on gastric acid secretion, this molecule registered an inhibition in vivo at 0.1 µmol/kg of 100%. As to `CN(C)Cc1ccc(CSCCNC2=NS(=O)(=O)c3cc(S(=O)(=O)N(C)C)ccc32)o1` [Example 9, N-[2-(5-Dimethylaminomethylfuran-2-ylmethylthio)ethyl] -6-dimethylsulphamoyl-1,2-benzoisothizaole-3-amine-1,1-dioxide], the inhibition in vivo at 0.1 µmol/kg with gastric acid secretion was 89%. As for `CN(C)Cc1ccc(CSCCNC2=Nc3ccccc3S(=O)(=O)N2)o1` [Example 39, N-[2-({5-Dimethylaminomethylfuran-2-yl)methylthio)ethyl] 1,2,4-benzothiadiazine-3-amine-1,1-dioxide], the “Activity (Decrease in Histamine Potency)” value on histamine H2-receptor (Concentration 1 x 10^-6 Molar) was “Active”. The same molecule registered an inhibition in vivo at 0.5 µmol/kg with gastric acid secretion of 78%. Turning to `CN(C)Cc1ccc(CSCCNC2=NS(=O)(=O)c3cccc(N)c32)o1` [Example 2, N^3-[2-(5-dimethylaminomethylfuran-2-ylmethylthio)ethyl]1,2-benzoisothiazole-3,4-diamine-1,1-dioxide], on histamine H2-receptor (setting [3]), the “Activity (Decrease in Histamine Potency)” value is listed as “Active”. Also, the inhibition in vivo at 0.2 µmol/kg in the assay with gastric acid secretion is 100%. For the molecule `CN(C)Cc1ccc(CSCCNC2=NS(=O)(=O)c3ccccc32)o1` [Example 3, N-[2-(5-dimethylaminomethylfuran-2-ylmethylthio)ethyl]-1,2-benzoisothiazole-3-amine-l,1-dioxide], the “Activity (Decrease in Histamine Potency)” value at histamine H2-receptor (setting [2]) was “Active”. The inhibition in vivo at 1 µmol/kg in the assay on gastric acid secretion turned out to be 100%. In the case of `O=S1(=O)N=C(NCCCOc2cccc(CN3CCCCC3)c2)c2ccccc21` [Example 10, N-[3-(3-piperid-1-ylmethylphenoxy)propyl]-1,2-henzoiso-thiazole-3-amine-1,1-dioxide], the “Activity (Decrease in Histamine Potency)” value at histamine H2-receptor (setting [1]) is recorded as “Active”. Moreover, the inhibition in vivo at 0.5 µmol/kg with gastric acid secretion came out at 100%. On to `CN(C)Cc1ccc(CSCCNC2=NS(=O)(=O)c3cc(N)ccc32)o1` [Example 14, N^3-[2-(5-dimethylaminomethylfuran-2-ylmethylthio)ethyl]-1,2-benzoisothiazole-3,6-diamine-1,1-dioxide], for which, on histamine H2-receptor (setting [2]), the “Activity (Decrease in Histamine Potency)” value is “Active”. The molecule further gave an inhibition in vivo at 0.2 µmol/kg in the assay on gastric acid secretion of 60%.

With `N=C(N)Nc1nc(CSCCNC2=NS(=O)(=O)c3cccc([N+](=O)[O-])c32)cs1` [Example 13, N-[2-(2-guanidinothiazol-4-ylmethylthio)ethyl]-4-nitro-1,2-benzoisothiazole-3-amine-1,1-dioxide], the “Activity (Decrease in Histamine Potency)” value on histamine H2-receptor (Concentration 1 x 10^-6 Molar) is listed as “Active”. `CN(C)Cc1ccc(CSCCNC2=NS(=O)(=O)c3c(N)cccc32)o1` [Example 15, N^3-[2-(5-dimethylaminomethylfuran-2-lmethylthio)ethyl]-1,2-benzoisothiazole-3,7-diamine-1,1dioxide] showed an inhibition in vivo at 0.4 µmol/kg in the assay on gastric acid secretion (dose 0.4 µmole/kg) of 60%.

Values taken from patent publication EP0105732A2, “Histamine H2 receptor antagonists of the benzisothiazole amino and benzthiadiazine amino series” (BEECHAM GROUP PLC, priority 1982, dated 1984).
